Data from US7569354B2, “Cellomics system” (OnChip Cellomics Consortium, priority 2004, dated 2009).

Legend:
[1] = tested on: blood from a patient suffering from leukemia; assay: separation of cells causing leukemia by intake of labeled amino acids; assay type: cell-based, human
Description: Descriptions are provided below for a case in which cells causing leukemia are separated by applying the technique in Example 3 for cell separation. NDB folic acid (Ex465/Em540), 4,4-difluoro-1,3,5,7-tetramethyl-4-bora-3a,4a-diaza-s-indacene-8-propionate labeled ASn, and 4,4-difluoro-5-(2-pyrrole)-4-bora-3a,4a-diaza-s-indacene-3-propionate labeled Thr are added to blood from a patient suffering from leukemia, and the mixture is incubated for 30 minutes at 37° C. Using the NDB folic acid (Ex465/Em540) as a control, the amounts of intaked 4,4-difluoro-3,5,7-tetramethyl-4-bora-3a,4a-diaza-s-indacene-8-propionate labeled ASn (Ex493/Em503) and intaked 4,4-difluoro-5-(2-pyrrole)-4-bora-3a,4a-diaza-s-indacene-3-propionate labeled Thr are measured by detecting the fluorescent intensities of various derivatives of 4,4-difluoro-4-bora-3a,4a-diaza-s-indacene against the fluorescence intensity generated by NDB-labeled folic acid, and cells having high fluorescence intensity with the fluorescence wavelength of around 503 nm, namely cells having a large intake amount of the 4,4-difluoro-1,3,5,7-tetramethyl-4-bora-3a,4a-diaza-s-indacene-8-propionate labeled ASn are sorted with a cell sorter.

[2] = tested on: cells from brain tissue pieces; assay: cell separation by cell permeability of NBD-labeled sugars, brain-derived cells; assay type: cell-based; conditions: 15 minutes at 37° C., 200 cells processed
Excerpt: In Example 2 for cell separation, a case is described in which differences of cells are recognized by measuring differences in cell permeability of a plurality of substrates and then discrete cells are separated. In this example, cells are identified and separated by observing the cell permeability of galactose or fructose against the glucose described in the aforementioned document. Generally, glucose is often used as an energy source for cells, but galactose or fructose is not directly consumed. For instance, when Escherichia coli is cultured in a mixed culture medium of glucose and fructose, glucose is consumed at first, and then […] is consumed when glucose decreases. Therefore, for instance, by measuring cell permeability of various types of substrates using a quantity of intaked glucose as control data, cell separation reflecting the state of cell more accurately can be performed.
In this example, a glucose labeling derivative of 6-(N-(7-nitrobenz-2-oxa-1.3-diazol-4-yl)amino) sugar (Ex465/Em540) (NBD-labeled sugar) is used. […] The culture fluid is exchanged with that not containing the NBD-labeled sugar, and the sample is immediately added to a cell sorter independently developed by the inventors, and cells with the relative fluorescence intensity of 500 or more are separated.

[3] = tested on: cells from a lever tissue; assay: cell separation by cell permeability of NBD-labeled sugars, lever tissue cells; assay type: cell-based
[4] = tested on: neurocyte / pulsating myocardial cell; conditions: added to culture fluid of the neurocyte side only
Description: In Example 3, examination is made for whether a beat cycle of the pulsating myocardial cell 2-1 kept in the cell holding zone 2 changes when potassium or glucose, or suspected endocrine disrupter is added to the culture fluid of the neurocyte 3-2 in the cell holding zone 3, or the content is increased.
At first, the same culture fluid is filled in the culture fluid baths 21-1, 21-2, and a beat cycle of the pulsating myocardial cell 2-1 is checked to obtain a myocardial pulsation pattern showing the substantially same cycle as shown in FIG. 49(A).

4,4-difluoro-1,3,5,7-tetramethyl-4-bora-3a,4a-diaza-s-indacene-8-propionate labeled ASn
cancerous leukocytes among the sorted cells with large intake, histological examination ([1]; 30 minutes at 37° C., fluorescence around 503 nm, NDB folic acid as control): ≥ 95%

4,4-difluoro-5-(2-pyrrole)-4-bora-3a,4a-diaza-s-indacene-3-propionate labeled Thr
intake rate in normal cells against cancer cells ([1]; compared to labeled Asn): not so remarkable

O=[N+]([O-])c1ccc(NCC2OC(O)C(O)C(O)[C@@H]2O)c2nonc12 (some centres unmarked) [NBD-labeled glucose]
cells obtained with the relative fluorescence intensity of 500 or more [2]: 66 cells | cells obtained with the relative fluorescence intensity of 500 or more [3]: 46 cells

NCCc1ccc(O)c(O)c1 [dopamine, 2-dihydroxyphenylethylamine]
beat cycle of the pulsating myocardial cell [4]: disturbance in the beat cycle
